Experimental data as given in the supplement of paper PMC8149375.

What was measured:
Conditions in all cases: treatment: drug + dasatinib (fixed dose, not stated); 5 days
769-P [1] = test: AUC of dose-response viability curve, drug + dasatinib, normalised to DMSO (arbitrary (AUC of normalised viability)); higher = less growth inhibition
Procedure: (§1)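 Primary HTS combination arm: 8 RCC cell lines treated with 8 doses (up to 10 uM) of each library drug plus a fixed dose of dasatinib (dose not stated) for 5 days; viability read by CellTiter-Glo and normalised to DMSO. GI50 was fitted with XLfit, AUC is the area under the dose-response curve, and minimum viability is the lowest fraction of DMSO viability across doses.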

ACHN [2] = test: as above
Procedure: as §1

UO-31 [3] = test: as above
Procedure: as §1

TK-10 [4] = test: as above
Procedure: as §1

A498 [5] = test: as above
Procedure: as §1

CAKI-1 [6] = test: as above
Procedure: as §1

786-O [7] = test: as above
Procedure: as §1

SN12C [8] = test: as above
Procedure: as §1

769-P [9] = test: GI50 of drug in presence of dasatinib; higher = less potent
Procedure: as §1

ACHN [10] = test: as above
Procedure: as §1

UO-31 [11] = test: as above
Procedure: as §1

TK-10 [12] = test: as above
Procedure: as §1

A498 [13] = test: as above
Procedure: as §1

CAKI-1 [14] = test: as above
Procedure: as §1

786-O [15] = test: as above
Procedure: as §1

SN12C [16] = test: as above
Procedure: as §1

769-P [17] = test: minimum viability across doses, drug + dasatinib, relative to DMSO (fraction); higher = less growth inhibition
Procedure: as §1

ACHN [18] = test: as above
Procedure: as §1

UO-31 [19] = test: as above
Procedure: as §1

TK-10 [20] = test: as above
Procedure: as §1

A498 [21] = test: as above
Procedure: as §1

CAKI-1 [22] = test: as above
Procedure: as §1

786-O [23] = test: as above
Procedure: as §1

SN12C [24] = test: as above
Procedure: as §1

Row | GI50 of drug (ACHN [10]) [nM] | GI50 of drug (786-O [15]) [nM] | Compound | AUC of dose-response viability curve (769-P [1]) | AUC of dose-response viability curve (ACHN [2]) | AUC of dose-response viability curve (UO-31 [3]) | AUC of dose-response viability curve (TK-10 [4]) | AUC of dose-response viability curve (A498 [5]) | AUC of dose-response viability curve (CAKI-1 [6]) | AUC of dose-response viability curve (786-O [7]) | AUC of dose-response viability curve (SN12C [8]) | GI50 of drug (769-P [9]) [nM] | GI50 of drug (UO-31 [11]) [nM] | GI50 of drug (TK-10 [12]) [nM] | GI50 of drug (A498 [13]) [nM] | GI50 of drug (CAKI-1 [14]) [nM] | GI50 of drug (SN12C [16]) [nM] | minimum viability across doses (769-P [17]) | minimum viability across doses (ACHN [18]) | minimum viability across doses (UO-31 [19]) | minimum viability across doses (TK-10 [20]) | minimum viability across doses (A498 [21]) | minimum viability across doses (CAKI-1 [22]) | minimum viability across doses (786-O [23]) | minimum viability across doses (SN12C [24])
1 | 13.5 | 266 | O=C(NOC[C@H](O)CO)c1ccc(F)c(F)c1Nc1ccc(I)cc1F + Cc1nc(Nc2ncc(C(=O)Nc3c(C)cccc3Cl)s2)cc(N2CCN(CCO)CC2)n1 [dasatinib] | 1.42 | 1.36 | 1.6 | 1.91 | 1.85 | 1.51 | 1.85 | 1.75 | 74.4 | 141 | 335 | 259 | 148 | 233 | 0.173 | 0.3 | 0.0632 | 0.296 | 0.302 | 0.0721 | 0.377 | 0.308
2 | > 10000 | > 10000 | COc1cccc(-c2cc(=O)c3ccccc3o2)c1N + Cc1nc(Nc2ncc(C(=O)Nc3c(C)cccc3Cl)s2)cc(N2CCN(CCO)CC2)n1 [dasatinib] | 2.48 | 2.01 | 3.99 | 2.57 | 3.37 | 2.27 | 2.58 | 2.49 | > 10000 | > 10000 | > 10000 | > 10000 | > 10000 | > 10000 | 0.645 | 0.511 | 1.08 | 0.655 | 0.908 | 0.612 | 0.541 | 0.658
3 | 1060 | 3300 | Cc1[nH]c(/C=C2\C(=O)Nc3ccc(S(=O)(=O)Cc4c(Cl)cccc4Cl)cc32)c(C)c1C(=O)N1CCC[C@@H]1CN1CCCC1 + Cc1nc(Nc2ncc(C(=O)Nc3c(C)cccc3Cl)s2)cc(N2CCN(CCO)CC2)n1 [dasatinib] | 2.14 | 1.93 | 2.84 | 2.73 | 2.71 | 2.04 | 2.38 | 2.19 | 2300 | 3100 | 4110 | 2100 | 2160 | 4240 | 0.00439 | 0.00119 | 0.0078 | 0.00273 | 0.0111 | 0.00431 | 0.0107 | 0.00449
4 | 19 | 174 | CC(=O)c1c(C)c2cnc(Nc3ccc(N4CCNCC4)cn3)nc2n(C2CCCC2)c1=O.Cl + Cc1nc(Nc2ncc(C(=O)Nc3c(C)cccc3Cl)s2)cc(N2CCN(CCO)CC2)n1 [dasatinib] | 1.8 | 1.32 | 2.58 | 2.06 | 2.92 | 1.71 | 1.87 | 2.1 | 231 | 1530 | 523 | > 10000 | 179 | 1190 | 0.0419 | 0.0923 | 0.166 | 0.186 | 0.566 | 0.0887 | 0.174 | 0.368
5 | 165 | 49.8 | CN(C)C1CCN(C(=O)c2ccc(NC(=O)Nc3ccc(-c4nc(N5CCOCC5)nc(N5CCOCC5)n4)cc3)cc2)CC1 + Cc1nc(Nc2ncc(C(=O)Nc3c(C)cccc3Cl)s2)cc(N2CCN(CCO)CC2)n1 [dasatinib] | 2.27 | 1.62 | 3.11 | 1.91 | 1.37 | 1.74 | 1.23 | 1.04 | 2870 | 1680 | 306 | 56.3 | 302 | 19.2 | 0.147 | 0.125 | 0.117 | 0.112 | 0.0743 | 0.0335 | 0.00554 | 0.107
6 | 19.8 | 1210 | CCN(CC)CCCCNc1ncc2cc(-c3cc(OC)cc(OC)c3)c(NC(=O)NC(C)(C)C)nc2n1 + Cc1nc(Nc2ncc(C(=O)Nc3c(C)cccc3Cl)s2)cc(N2CCN(CCO)CC2)n1 [dasatinib] | 2.13 | 1.28 | 2.28 | 2.18 | 2.67 | 1.31 | 2.02 | 1.9 | 1820 | 696 | 1390 | 3570 | 80.1 | 366 | 0.207 | 0.042 | 0.0119 | 0.258 | 0.139 | 0.0229 | 0.00578 | 0.0905
7 | 15.4 | 40.2 | COc1ccc(-c2cc3c(C)nc(N)nc3n([C@H]3CC[C@H](OCCO)CC3)c2=O)cn1 + Cc1nc(Nc2ncc(C(=O)Nc3c(C)cccc3Cl)s2)cc(N2CCN(CCO)CC2)n1 [dasatinib] | 1.37 | 1 | 1.67 | 1.35 | 2.3 | 1.12 | 1.15 | 1.37 | 94.6 | 129 | 62.1 | 491 | 41.7 | 79.4 | 0.0148 | 0.0415 | 0.00781 | 0.0233 | 0.161 | 0.00992 | 0.0021 | 0.0663
